Experimental data from ChEMBL document CHEMBL4665744, “Diverse Types of Diterpenoids with an Aromatized C Ring from the Twigs of Podocarpus imbricatus” (J Nat Prod, 2020).
Activity calls are given as the source filed them. No cut-off for these calls is given here.

Legend:
Zika virus = experiment: Antiviral activity against Zika virus; format: functional, organism-based
[1] = Cytotoxicity activity against African green monkey Vero cells assessed as reduction in cell viability by MTT assay; format: cell-based; conditions: chlorocebus sabaeus

Row | SMILES | Activity (Zika virus) | also measured
1 | CC(C)c1cc2c(cc1O)C[C@@H](O)[C@H]1[C@](C)(CO)CCC[C@]21C | inactive | –
2 | C[C@H](CO)c1cc2c(cc1O)[C@@]1(C)CCC[C@](C)(C(=O)O)[C@@H]1CC2 | inactive | –
3 | COc1c(C)c2c(c(O)c1C/C=C(\C)CCC(=O)O)C(=O)OC2 [MYCOPHENOLIC ACID] | – | CC50 [1]: 18.7 µM
4 | CC(C)c1c(O)ccc2c1CC[C@H]1C(C)(C)CC[C@@H](O)[C@]21C | inactive | –
5 | CC(C)c1cc2c(cc1O)[C@@H](O)[C@@H](O)[C@H]1[C@](C)(CO)CCC[C@]21C | – | IC50 (Zika virus): 2.5 µM
